This is an account of results in ChEMBL document CHEMBL1255393, “Impact of different factors on the probability of clinical response in tigecycline-treated patients with intra-abdominal infections” (Antimicrob Agents Chemother, 2010).

A short description of data set [1]: Serum clearance in intra-abdominal infection patient at 100 mg followed by 50 mg every 12 hrs for 5 to 14 days. The class given is ADME, organism-based. Conditions: human.
Data set [2] is described as follows: AUC in intra-abdominal infection patient at 100 mg followed by 50 mg every 12 hrs for 5 to 14 days. The class given is ADME, organism-based. The following applies: human, plasma.
Data set [3] deals with Enterobacteriaceae. Description: Antibacterial activity against Enterobacteriaceae isolate obtained from intra-abdominal infection patient. The class given is functional.
The nature of data set [4]: Ratio of AUC in intra-abdominal infection patient at 100 mg followed by 50 mg every 12 hrs for 5 to 14 days to MIC for Enterobacteriaceae isolate. Type of data set: functional.

In brackets after ≈: the same amount, converted by molar mass.

For orientation: clearance means a measure of how efficiently the substance is removed, as volume per time. The term AUC denotes the area under the concentration-time curve, a measure of exposure. A high value points to more exposure. By MIC50 is commonly meant the lowest concentration that inhibits either 50% of growth or 50% of the strains tested, depending on the study. A low value points to greater potency. By MIC90 is commonly meant the lowest concentration that inhibits either 90% of growth or 90% of the strains tested, depending on the study. A lower MIC90 goes with higher susceptibility.

Consider `CN(C)c1cc(NC(=O)CNC(C)(C)C)c(O)c2c1C[C@H]1C[C@H]3[C@H](N(C)C)C(O)=C(C(N)=O)C(=O)[C@@]3(O)C(O)=C1C2=O` [TIGECYCLINE], for which the clearance in data set [1] was 268 mL/min. Further, in data set [2], the AUC came to 6190 ng·h/mL. Moreover, in data set [3], the MIC50 came out at 0.25 µg/mL (≈ 0.427 µM) and the MIC90 came out at 1 µg/mL (≈ 1.71 µM). Further, in data set [4], the Ratio is 21.8.
